Values quoted from earlier work as cited in patent publication US20230210112A1, “METHOD FOR GROWING PLANTS” (Taminco BV, priority 2020, published 2023).

Experiments:
pests = conditions: in vivo
cauliflower seedlings = conditions: 20 mM BABA
Tomato plants = conditions: treated tomato seedlings

| Reduction in growth of cauliflower seedlings (cauliflower seedlings) [%] | Concentration at which root growth repression was observed (as low as) (Tomato plants) [mM] | SMILES | Effect on plant growth or development (in words) (pests) | Resistance-inducing activity (in words) (pests) |
| --- | --- | --- | --- | --- |
|  |  | N[C@@H](CO)CC(=O)O [(R)-beta-homoserine] | without affecting plant growth or development | strong resistance-inducing activity |
| 14.7 | 0.5 | CC(N)CC(=O)O (stereo not drawn) [BABA, beta-aminobutyric acid] |  |  |
|  | 0.25 | CC/C=C\C[C@H]1C(=O)CC[C@@H]1CC(=O)O [JA, jasmonic acid] |  |  |
